{"source": "patent US6015560A", "about": "“Antibody recognizing endothelial cell ligand for leukocyte CR3” (priority 1995, dated 2000)", "key": {"[1]": {"tested_on": "blood brain barrier", "test": "Rabbit meningitis model: CSF protein and lactate (blood brain barrier permeability)", "assay_type": "in vivo", "outline": "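New Zealand white rabbits (2 kg) under anaesthesia challenged intracisternally with 10^8 heat-killed unencapsulated pneumococcus R6; peptides given IV in 1 ml saline 1 h later, at 0.1 μM, 10 μM or 10^-3 μM depending on peptide. CSF sampled hourly; protein by BCA and lactate assayed, compared by one-way ANOVA.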"}, "[2]": {"tested_on": "neutrophils", "test": "Inhibition of 125I-Factor X binding to neutrophils", "design": "species or system human", "description": "Human Factor X (Sigma or Hematologic Technologies Inc.) was labeled with ^125 I using Iodogen (Pierce Chemical Co.) Human neutrophils were isolated from heparinized blood according to the manufacturer's specification using Neutrophil Isolation Medium (Cardinal Associates, Santa Fe, N.Mex.) and washed three times with 5 mM EDTA-phosphate-bufferedsaline (PBS), pH 7.2, at 4° C. To eliminate platelet contamination,neutrophils were incubated with autologous serum containing 5 mM EDTA for 30 mins. at 37° C., washed three times with ice-cold PBS, pH 7.2, and resuspended in RPMI 1640 tissue culture medium (Whittaker M. A. Bioproducts, Walkersville, Md.) at 4° C. Binding of ^125 I-Factor X to neutrophils was measured based on a method described by Altieri et al. (1991) Science 254: 1200-1202. Briefly, 200 μl of neutrophils (1.5×10^7 /ml) were supplemented with 17.5 μl of 50 mM CaCl2, stimulated with 3.5 μl of 100 μM NH2 -formyl-Met-Leu-Phe (Sigma), and mixed with 30 μl of 10.3 μg/ml ^125 I-Factor X and 100 μl of 1.75 mM of peptide. […] Aliquots of the supernatant (cell free ^125 I-Factor X) and the cell pellet (cell bound ^125 I-Factor X) were counted in a gamma-counter. Nonspecific binding (~50,000 cpm) was determined by adding a 100 fold excess of unlabeled Factor X, and subtracted from total radioactivity (~500,000 cpm for controls)."}, "[3]": {"tested_on": "leukocytes in CSF", "test": "Rabbit meningitis model: leukocyte migration into CSF", "assay_type": "in vivo", "outline": "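New Zealand white rabbits received 10^8 heat-killed unencapsulated pneumococcus R6 intracisternally, then peptide in 1 ml saline i.v. 1 h later (1 uM in the follow-up study). CSF leukocyte density was counted hourly after inoculation. Peripheral blood leukocytes were sampled 30 min post-dosing.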"}, "[4]": {"tested_on": "leukocytes in CSF", "test": "Leukocyte and protein influx into CSF of rabbits challenged with pneumococci", "assay_type": "in vivo, rabbit", "conditions": "intravenous, meningitis model", "from_the_text": "This inhibitory activity implies that antibodies to FHA which bind to any of the three Factor X regions would disturb leukocyte recruitment. This is to be distinguished from anti-FHA antibodies that bind to endothelia by recognizing an integrin receptor which is an endothelial cell component (see below). […] This is shown in FIG. 6 where various doses of antibody were given to rabbits and the number of leukocytes recruited into the cerebrospinal fluid in response to pneumonoccal meningitis was determined.\nRabbits were inoculated intracisternally with 10^8 pneumococci and the generation of an inflammatory response in cerebrospinal fluid (CSF) was followed over time by measuring the appearance of leukocytes and protein in CSF. Animals were treated with the antibodies intravenously (2 mg/kg of culture supernatant fluid) at the same time as the intracisternal challenge was given."}, "[5]": {"conditions": "TLC plates containing ciliary extracts; cited from earlier work"}, "[6]": {"conditions": "6 hours, peptides 10 μM, FHA 0.1 μM"}}, "data": [{"substance": "filamentous hemagglutinin [native FHA]", "values": [{"measurement": "protein influx into CSF and lactate generation (in words)", "setting": "[1]; 10 μM peptides, 0.1 μM FHA", "result": "significantly protective for protein influx and lactate generation"}, {"measurement": "Total protein in CSF", "setting": "[1]; 6 hours", "result": "1.70 ± 0.33", "unit": "mg/mL"}, {"measurement": "Lactate in CSF", "setting": "[1]; [6]", "result": "25.0 ± 5.3", "unit": "mg/100 ml"}, {"measurement": "Protein in CSF", "setting": "[1]; [6]", "result": "1.3 ± 0.3", "unit": "mg/ml CSF"}, {"measurement": "Total protein in CSF", "setting": "[1]; 7 hours", "result": "1.86 ± 0.76", "unit": "mg/mL"}, {"measurement": "IC50", "setting": "[2]", "result": 100, "unit": "nM"}, {"measurement": "inhibition of 125I-Factor X binding to neutrophils", "setting": "[2]; native FHA 0.3 μM", "result": "70±4", "unit": "%"}, {"measurement": "anti-inflammatory effect (in words)", "setting": "[3]; 10^-3 μM i.v.", "result": "ineffective"}, {"measurement": "mean leukocyte concentration in CSF", "setting": "[3]; 7 hours, FHA 0.1 μM (25 μg) i.v.", "result": "2096±450 /μl CSF"}, {"measurement": "leukocyte density vs control (in words)", "setting": "[3]; 7 hours, 10^-1 μM", "result": "statistically significantly different from control"}, {"measurement": "reduction of CSF leukocytosis", "setting": "[3]; peptides 10 μM, FHA 0.1 μM", "result": "> 60", "unit": "%"}, {"measurement": "leukocyte influx into / inflammation of CSF (in words)", "setting": "[4]", "result": "decreases inflammation"}, {"measurement": "binding to lactosylceramide", "setting": "[5]", "result": "binds to lactosylceramide"}]}]}
